Experimental data taken from patent US20240368120A1 (Terns Pharmaceuticals, Inc., priority 2023, published 2024).

Molecular target: T1, human GLP-1R receptor (Homo sapiens, UniProt P43220)
T1 construct: expressed in transfected cells
Experiment: GLP-1R low expression cell assay (cAMP TR-FRET, CHO-K1_hGLP-1Rlow_clone10 cells)
Type: cell-based
Conditions: for EC50: cAMP TR-FRET, 30 min at 25° C.; for Emax: maximum activation relative to control GLP-1 peptide agonist
Method in brief: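 CHO-K1 cells stably expressing low surface human GLP-1R (clone10), 1,000 cells/well, exposed to 10-point 3-fold compound dilutions for 30 min at 25 °C. cAMP measured by TR-FRET (Eu-cAMP tracer/ULight-anti-cAMP, 15 min). EC50 from Hill fit of duplicate percent activation relative to a parallel GLP-1 control agonist.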

T1 sequence (P43220 24-463): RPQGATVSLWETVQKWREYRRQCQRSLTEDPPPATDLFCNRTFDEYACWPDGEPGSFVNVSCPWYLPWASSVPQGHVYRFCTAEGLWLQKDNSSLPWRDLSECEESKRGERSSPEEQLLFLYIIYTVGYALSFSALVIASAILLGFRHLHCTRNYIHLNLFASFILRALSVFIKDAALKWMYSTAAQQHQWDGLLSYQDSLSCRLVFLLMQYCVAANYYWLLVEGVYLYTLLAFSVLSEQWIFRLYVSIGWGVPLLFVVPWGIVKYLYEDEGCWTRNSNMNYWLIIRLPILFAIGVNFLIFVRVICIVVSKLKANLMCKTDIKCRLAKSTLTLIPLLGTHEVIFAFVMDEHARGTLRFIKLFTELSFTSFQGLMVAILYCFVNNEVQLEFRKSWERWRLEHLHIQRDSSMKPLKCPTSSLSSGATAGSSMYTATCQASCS

| Structure (SMILES) | EC50 [µM] | Emax [%] |
| --- | --- | --- |
| Cn1c(CN2CCC(c3cccc(OCc4ccc(C#N)cc4F)n3)CC2)nc2c(OCCF)cc(C(=O)O)cc21 [Compound 183, 2-((4-(6-((4-Cyano-2-fluorobenzyl)oxy)pyridin-2-yl)piperidin-1-yl)methyl)-4-(2-fluoroethoxy)-1-methyl-1H-benzo[d]imidazole-6-carboxylic acid] | < 0.01 | > 85 |
| Cn1c(CN2CCC(c3nccc(OCc4ccc(C#N)cc4F)n3)CC2)nc2c(OC(F)F)cc(C(=O)O)cc21 [Compound 184, 2-((4-(4-((4-Cyano-2-fluorobenzyl)oxy)pyrimidin-2-yl)piperidin-1-yl)methyl)-4-(difluoromethoxy)-1-methyl-1H-benzo[d]imidazole-6-carboxylic acid] | 0.1 to 1 | > 85 |
| Cn1c(CN2CCC(c3ccc(F)c(OCc4ccc(C(N)=O)cc4F)n3)CC2)nc2c(OC(F)F)cc(C(=O)O)cc21 [Compound 185, 2-((4-(6-((4-carbamoyl-2-fluorobenzyl)oxy)-5-fluoropyridin-2-yl)piperidin-1-yl)methyl)-4-(difluoromethoxy)-1-methyl-1H-benzo[d]imidazole-6-carboxylic acid] | 0.1 to 1 | > 85 |
| Cn1c(CN2CCC(c3cccc(OCc4ccc(Cl)cc4F)n3)CC2)nc2c(NCCF)cc(C(=O)O)cc21 [Compound 186, 2-((4-(6-((4-Chloro-2-fluorobenzyl)oxy)pyridin-2-yl)piperidin-1-yl)methyl)-4-((2-fluoroethyl)amino)-1-methyl-1H-benzo[d]imidazole-6-carboxylic acid] | 0.1 to 1 | > 85 |
| COc1c(C(=O)O)ccc2c1nc(CN1CCC(c3cccc(OCc4ccc(Cl)cc4F)n3)CC1)n2C [Compound 187, 2-((4-(6-((4-Chloro-2-fluorobenzyl)oxy)pyridin-2-yl)piperidin-1-yl)methyl)-4-methoxy-1-methyl-1H-benzo[d]imidazole-5-carboxylic acid] | > 1 | < 25 |
| Cn1c(CN2CCC(c3cccc(OCc4ccc(Cl)cc4F)n3)CC2)nc2c(OCC3(F)CC3)cc(C(=O)O)cc21 [Compound 188, 2-((4-(6-((4-Chloro-2-fluorobenzyl)oxy)pyridin-2-yl)piperidin-1-yl)methyl)-4-((1-fluorocyclopropyl)methoxy)-1-methyl-1H-benzo[d]imidazole-6-carboxylic acid] | 0.01 to 0.1 | > 85 |
| Cn1c(CN2CCC(c3cccc(OCc4ccc(Cl)cc4F)n3)CC2)nc2c(C#N)cc(C(=O)O)cc21 [Compound 189, 2-((4-(6-((4-chloro-2-fluorobenzyl)oxy)pyridin-2-yl)piperidin-1-yl)methyl)-4-cyano-1-methyl-1H-benzo[d]imidazole-6-carboxylic acid] | 0.01 to 0.1 | > 85 |
| Cn1c(CN2CCC(c3cccc(OCc4ccc(Cl)cc4F)n3)CC2)nc2c(OC(F)F)cc(C(=O)O)c(F)c21 [Compound 190, 2-((4-(6-((4-Chloro-2-fluorobenzyl)oxy)pyridin-2-yl)piperidin-1-yl)methyl)-4-(difluoromethoxy)-7-fluoro-1-methyl-1H-benzo[d]imidazole-6-carboxylic acid] | 0.01 to 0.1 | > 85 |
| O=C(O)c1ccc2c(nc(CN3CCC(c4cccc(OCc5ccc(Cl)cc5F)n4)CC3)n2C[C@@H]2CCO2)c1OC(F)F [Compound 191, (S)-2-((4-(6-((4-chloro-2-fluorobenzyl)oxy)pyridin-2-yl)piperidin-1-yl)methyl)-4-(difluoromethoxy)-1-(oxetan-2-ylmethyl)-1H-benzo[d]imidazole-5-carboxylic acid] | 0.1 to 1 | > 85 |
| COc1cc(C(=O)O)cc2nc(CN3CCC(c4cccc(OCc5ccc(Cl)cc5F)n4)CC3)n(CF)c12 [Compound 192, 2-((4-(6-((4-Chloro-2-fluorobenzyl)oxy)pyridin-2-yl)piperidin-1-yl)methyl)-1-(fluoromethyl)-7-methoxy-1H-benzo[d]imidazole-5-carboxylic acid] | > 1 | 50 to 85 |

The next lines start with the values.

| EC50 [µM] | Emax [%] | Structure (SMILES) |
| --- | --- | --- |
| > 1 | < 25 | Cn1c(CN2CCC(c3ccc4c(c3)N(Cc3ccc(Cl)cc3F)C(=O)CO4)CC2)nc2c(OC(F)F)cc(C(=O)O)cc21 [Compound 193, 2-((4-(4-(4-chloro-2-fluorobenzyl)-3-oxo-3,4-dihydro-2H-benzo[b][1,4]oxazin-6-yl)piperidin-1-yl)methyl)-4-(difluoromethoxy)-1-methyl-1H-benzo[d]imidazole-6-carboxylic acid] |
| 0.1 to 1 | > 85 | Cn1c(CN2CCC(c3ccc(Cl)c(OCc4ccc(Cl)cc4F)c3)CC2)nc2c(OC(F)F)cc(C(=O)O)cc21 [Compound 194, 2-((4-(4-Chloro-3-((4-chloro-2-fluorobenzyl)oxy)phenyl)piperidin-1-yl)methyl)-4-(difluoromethoxy)-1-methyl-1H-benzo[d]imidazole-6-carboxylic acid] |
| 0.01 to 0.1 | > 85 | [2H]C([2H])(Oc1cccc(C2CCN(Cc3nc4c(OC(F)F)cc(C(=O)O)cc4n3C)CC2)n1)c1ccc(Cl)cc1F [Compound 195, 2-((4-(6-((4-Chloro-2-fluorophenyl)methoxy-d2)pyridin-2-yl)piperidin-1-yl)methyl)-4-(difluoromethoxy)-1-methyl-1H-benzo[d]imidazole-6-carboxylic acid] |
| 0.01 to 0.1 | > 85 | Cn1c(CN2CCC(Oc3cccc(COc4ccc(Cl)cc4F)n3)CC2)nc2c(OC(F)F)cc(C(=O)O)cc21 [Compound 196, 2-((4-((6-((4-Chloro-2-fluorophenoxy)methyl)pyridin-2-yl)oxy)piperidin-1-yl)methyl)-4-(difluoromethoxy)-1-methyl-1H-benzo[d]imidazole-6-carboxylic acid] |
| < 0.01 | > 85 | Cn1c(Cc2cc(F)c(-c3cccc(OCc4ccc(Cl)cc4F)n3)cc2F)nc2c(OC(F)F)cc(C(=O)O)cc21 [Compound 197, 2-(4-(6-((4-Chloro-2-fluorobenzyl)oxy)pyridin-2-yl)-2,5-difluorobenzyl)-4-(difluoromethoxy)-1-methyl-1H-benzo[d]imidazole-6-carboxylic acid] |
| 0.01 to 0.1 | > 85 | Cn1c(Cc2ccc(-c3cccc(OCc4ccc(Cl)cc4F)n3)cc2F)nc2c(OC(F)F)cc(C(=O)O)cc21 [Compound 198, 2-(4-(6-((4-Chloro-2-fluorobenzyl)oxy)pyridin-2-yl)-2-fluorobenzyl)-4-(difluoromethoxy)-1-methyl-1H-benzo[d]imidazole-6-carboxylic acid] |
| 0.01 to 0.1 | > 85 | O=C(O)c1cc(OC(F)F)c2nc(CN3CCC(c4cccc(OCc5ccc(Cl)cc5F)n4)CC3)n(C3CC3)c2c1 [Compound 199, 2-((4-(6-((4-Chloro-2-fluorobenzyl)oxy)pyridin-2-yl)piperidin-1-yl)methyl)-1-cyclopropyl-4-(difluoromethoxy)-1H-benzo[d]imidazole-6-carboxylic acid] |
| > 1 | > 85 | Cn1c(CN2CCC(n3nccc3OCc3ccc(Cl)cc3F)CC2)nc2c(OC(F)F)cc(C(=O)O)cc21 [Compound 200, 2-((4-(5-((4-Chloro-2-fluorobenzyl)oxy)-1H-pyrazol-1-yl)piperidin-1-yl)methyl)-4-(difluoromethoxy)-1-methyl-1H-benzo[d]imidazole-6-carboxylic acid] |
